# Experimental data reported in patent publication US20200383331A1, “COMPOSITIONS AND METHODS FOR LARGE-SCALE IN VITRO PLANT BIOCULTURE” (BOOSHOOT, LLC, priority 2017, published 2020).
# Tested on: Pistacia atlantica x P. intergerrina plants
# Assay: In vitro initiation and multiplication of pistachio on solid medium
# Format: cell-based
# Procedure: Fully developed pistachio plants were cut into single-node explants, shoot tips, basal (bottom) parts of plants with multiple buds, and cultured on different agar-solidified culture media under standard tissue culture conditions (16 h light photoperiod, cool white fluorescent lights at 80-100 μmol/m^2/s light intensity, 24° C.).
# Culture vessels (baby food jars) with ventilated lids are used in all experiments: 1-3 explants per 1 vessel, 12 vessels per each experimental medium, 40 ml of medium in each vessel. The explants are subcultured every 30 days, photographed every week, and observed daily.
# The culture media differed in composition of major macronutrients (e.g., MS vs. WPM vs. DKW), individual elements (calcium, magnesium, phosphorus, zinc copper, boron, etc.), as well as in type and concentration of plant growth regulators (PGRs).
# The compositions of these media are presented in FIG. 38, and their key advantages are based on data presented below.
# Because the type and dosage of PGRs are usually the key factors controlling the morphogenetic response of plant cells in vitro, the main work was focused on testing various concentrations of cytokinins or cytokinin-like compounds (TDZ, 2iP, BA, meta-Topolin, ZR), alone or in combination with auxins (NAA, IAA, IBA), to induce organogenesis and high frequency multiplication in Pistacia atlantica x P. intergerrina. In the absence of PGRs (i.e., on hormone-free media), the plant growth was very poor and the culture gradually died within several weeks. In contrast, the culture media with 1-3 mg/l meta-Topolin, alone or in combination with 0.02-1 mg/l NAA or IBA, provided the highest rate of shoot organogenesis with the fastest response: each explant formed multiple meristematic buds, and the first axillary shoots appeared as early as 3 days after the explants were placed on the media. […] The multiplication rate of pistachio plants cultured on BOO3, BOO6, BOO4, and BOO7 media was 2-7 times every 30 days. […]
# [1] = 1-3 mg/l meta-Topolin, alone or in combination with 0.02-1 mg/l NAA or IBA
Structure (SMILES),shoot development from dormant buds of plant bases (2 mg/l of GA3 added into the media),first axillary shoots appeared after the explants were placed on the media [1],rate of shoot organogenesis [1]
"C=C1C[C@]23C[C@@]1(O)CC[C@H]2[C@@]12C=C[C@H](O)[C@@](C)(C(=O)O1)[C@H]2[C@@H]3C(=O)O [GA3, gibberellic acid]",induced shoot development,,
"Oc1cccc(CNc2ncnc3[nH]cnc23)c1 [meta-Topolin, 6-(3-hydroxybenzylamino)-purine]",,≥ 3 days,highest
